Assay results from US20250281518A1, “METHODS AND AGENTS FOR PREVENTING SKELETAL AGING, OSTEOPOROSIS AND OBESITY” (The Regents of the University of California, priority 2022, published 2025).
Entries after “also recorded” stand apart in the source; their conditions may differ.

Legend:
[1] = Stability of water solutions; assay type: physicochemical; conditions: water solution
OVX C57BL/6J female mice = assay: Ovariectomy (OVX)-induced osteoporosis and obesity in mice, dosing in drinking water over two months; assay type: in vivo, mouse
Text: Aging-related bone loss and osteoporosis frequently occur in women after menopause. To mimic the pathogenesis of osteoporotic bone loss, we performed ovariectomy (OVX) on female mice to induce estrogen deficiency. […] Mice weight on average 20 g at the start of the experiment. […] Dosing was over two months.
(§1) For the mice on high fat diets, the starting animal weights were about 25 grams.
(§2) We monitored mouse body weight, food and water consumption on a weekly basis for two months. Nuclear magnetic resonance scanner was used to assess lean mass and fat mass composition. Serum chemistries were analyzed in UCLA DLAM facility. Liver and adipose tissues were harvested for histology and histomorphometric analyses. Femur, tibia and mandible were subjected to micro-CT scanning and reconstruction. […] One-way ANOVA was performed to quantify differences among all the groups.

HFD-fed mice = assay: High fat diet (HFD)-induced obesity and bone loss in mice, dosing in drinking water for three months; assay type: in vivo, mouse
Text: as §1
as §2, with “Mice were given a regular diet or high fat diet (HFD) for three months beginning at age of 8 weeks. […] Body” for “We monitored mouse body”, “consumption were monitored” for “consumption”, “three” for “two”, “composition.” for “composition. Serum chemistries were analyzed in UCLA DLAM facility.”

aged C57BL/6J male mice = assay: Bone and adipose metabolism in aged mice, dosing in drinking water from 18 months of age for six months; assay type: in vivo, mouse; conditions: for body weight: after six months treatment
Procedure: as §1
Mice weighed 40 g on average at the start of the study. Body weight, food and water consumption were monitored on a weekly basis. Nuclear magnetic resonance scanner was used to assess lean mass and fat mass composition. Liver and adipose tissues were harvested for histology and histomorphometric analyses. Femur, tibia and mandible were subjected to μCT scanning and reconstruction. […] One-way ANOVA was performed to quantify differences among all the groups.

Solubility in water = assay type: physicochemical
[2] = 100 mg/kg/day alone, compared with 500 mg/kg/day and combination groups

alpha-ketoglutarate [α-KG]
stability of the water solutions [1]: highly stable

NC(=O)c1ccc[n+]([C@@H]2O[C@H](COP(=O)([O-])O)[C@@H](O)[C@H]2O)c1 [NMN, 3-carbamoyl-1-[5-O-(hydroxyphosphinato)-β-D-ribofuranosyl]pyridinium]
weight and size of liver (OVX C57BL/6J female mice; 100 mg/kg/day alone, OVX mice): did not significantly affect
OVX-induced body weight gain (OVX C57BL/6J female mice; 100 mg/kg/day alone, drinking water, two months): ineffective; also recorded: did not significantly inhibit
OVX-induced mouse body weight gain (OVX C57BL/6J female mice; 500 mg/kg/day alone, drinking water, two months): significantly inhibited
fat mass (nuclear magnetic resonance) (HFD-fed mice; 100 mg/kg/day alone, HFD): could not affect
weight gains induced by HFD (HFD-fed mice; low concentration (100 mg/kg/day) alone, three months): did not significantly reduce
pgWAT weight gain induced by HFD (HFD-fed mice; low concentration alone): did not significantly inhibit
body weight (aged C57BL/6J male mice; 100 mg/kg/day alone, compared with control): increased at a similar rate
fat mass and lean mass (nuclear magnetic resonance) (aged C57BL/6J male mice; [2]): significantly higher fat mass and lower lean mass
weight and size of liver (aged C57BL/6J male mice; [2]): significantly higher
weight of pgWAT (aged C57BL/6J male mice; [2]): significantly higher
body weight (aged C57BL/6J male mice; 500 mg/kg/day alone): decreased significantly
weight and size of liver (aged C57BL/6J male mice; 500 mg/kg/day alone, comparison is worded from the side of control and 100 mg/kg/day groups): significantly higher in control, 100 mg/kg/day α-KG, and 100 mg/kg/day NMN groups compared with
solubility in water (Solubility in water): dissolve well in water
stability of the water solutions [1]: highly stable
